Data: patent US9540337B2, “Gamma-glutamyl transpeptidase inhibitors and methods of use” (The Board of Regents of the University of Oklahoma, priority 2012, dated 2017)
Like-named read-outs stand apart in the source and are kept apart here. Each block holds one compound with its values, some of them ahead of it.

How the values were obtained:
[1] = molecular target: T1, Human GGT1 (Homo sapiens, UniProt P19440); test: Initial rate studies with D-GpNA and L-GpNA, with or without acceptor GlyGly; format: biochemical; settings: for second order rate constant: rounded in discussion; for fold increase of Vmax in the presence of GlyGly: plus vs minus GlyGly
T1 construct: lacking the transmembrane domain; made in house; host or cells: Pichia pastoris
Protocol: (§1) Transpeptidation Reaction: The same assay buffer was used for both the hydrolysis reaction and the transpeptidation reaction. The transpeptidation reaction included 40 mM glycylglycine (glygly, Sigma, St. Louis, Mo.) as the acceptor. The concentration of the substrate for the transpeptidation reaction, L-GpNA (Sigma) was varied from 0.25 mM to 3 mM. The concentration of L-GpNA was 3 mM for experiments in which the concentration of glygly was varied. To initiate the transpeptidation reaction, 4 mU GGT were added.
1. […] 2, which describes a ping pong kinetic mechanism. […] 3 and 4. […] 5 (25).
In eq. […] Data for noncompetitive inhibition were fitted to eq. 6. […] 6 [25].
Initial Rate Studies with D-GpNA and L-GpNA: In this study, the inhibition of both the GGT hydrolysis and transpeptidation reactions by OU749 and a new series of thiadiazol sulfonamide analogs was studied. The hydrolysis and transpeptidation reactions were analyzed separately by using different stereo-isomers of the γ-glutamyl-p-nitroanilide (GpNA) substrate. The kinetics of both reactions were first characterized in the absence of inhibitors. Cleavage of the γ-glutamyl bond of either D-GpNA or L-GpNA releases p-nitroanaline, which has an OD405 of 7,680 M^−1 cm^−1, allowing for the reactions to be monitored continuously with high sensitivity. The D-glutamyl isomer of GpNA was used as the substrate for the hydrolysis reaction, in which water serves as the acceptor. The L-glutamyl isomer of GpNA, with glycylglycine (GlyGly) as an acceptor, was used for the transpeptidation reaction. L-GpNA can serve as both a substrate and a low affinity acceptor, while D-GpNA is unable to serve as an acceptor (18, 21, 26). Therefore, in the absence of an added acceptor GGT exclusively catalyzes a hydrolysis reaction with D-GpNA as the substrate. When L-GpNA is used as a substrate, the GGT reaction is a mixture of both the hydrolysis and transpeptidation reactions. Under these conditions, the rate of the reaction is the sum of hydrolysis and transpeptidation reactions, with the hydrolysis reaction contributing more at low L-GpNA concentrations and transpeptidation dominating at saturating substrate concentrations. […] However, the maximum rate (Vmax) obtained with L-GpNA was approximately 3-times faster than that measured with D-GpNA, and the KGpNA for L-GpNA was 5-times higher than that measured for D-GpNA. This is at least partially due to the ability of L-GpNA to serve as an acceptor, resulting in a transpeptidation reaction, which is faster than the hydrolysis reaction. Therefore, to study the hydrolysis reaction in isolation, D-GpNA was used as the substrate without any added acceptor.

[2] = molecular target: T2, hGGT (Homo sapiens, UniProt P19440); test: L-Glutamate Release Assay (Hydrolysis of GSH); format: biochemical; settings: for Ki: GSH hydrolysis, read-out: GSH Kii
T2 construct: lacking the transmembrane domain; made in house; host or cells: Pichia pastoris
Protocol: L-Glutamate Release Assay (Hydrolysis of GSH): This assay measures the production of glutamate from the hydrolysis of GSH by GGT enzyme and has been described in detail previously. The concentration of the substrate, GSH, was varied from 5 μM to 20 μM. The concentration of the inhibitors, OU749 and its analogs, were varied from 15.6 μM to 250 μM. The reaction was initiated with the addition of 10 mU hGGT. […] All compounds were also evaluated as inhibitors of glutamate dehydrogenase, the enzyme in the second half of the L-glutamate release assay. None of the compounds in this study inhibited glutamate dehydrogenase.

[3] = molecular target: T3, Human GGT1 (hGGT) (Homo sapiens, UniProt P19440); test: L-GpNA Transpeptidation Assay with GlyGly as acceptor; format: biochemical; design: lacking the transmembrane domain; made in house; host or cells: Pichia pastoris
Protocol: as §1, with “The concentration of the substrate for the transpeptidation reaction, L-GpNA (Sigma) was varied from 0.25 mM to 3 mM.” left out
1. […] 3 and 4. […] 5 (25).
L-GpNA Transpeptidation Assay: The assay has been described previously. […] The concentration of L-GpNA was 3 mM for experiments in which the concentration of GlyGly was varied. To initiate the transpeptidation reaction, 4 mU GGT were added.

[4] = molecular target: T3, Human GGT1 (hGGT); test: D-GpNA Hydrolysis Assay (release of pNA, 405 nm, pH 7.4)
Protocol: (§2) Enzyme Isolation: Human GGT1 (P19440), lacking the transmembrane domain, was expressed in Pichia pastoris and isolated as previously described (14). […] One unit of GGT activity was defined as the amount of enzyme that released 1 μmol of paranitroaniline/min at 37° C. at pH 7.4 in the transpeptidation reaction.
The reaction was initiated with the addition of 19 mU GGT. The reaction was incubated at 37° C. and monitored continuously at 405 nm by a Bio-Rad model 680 microplate reader with Microplate Manager 5.2 software (Bio-Rad, Hercules, Calif.).
Data Analysis: Samples in each experiment were run in triplicate. Each inhibitor was evaluated in two or more independent experiments. Double reciprocal plots were generated to assess data quality and determine the correct rate equation for data fitting. Data were fitted using the proper rate equation and the Marquardt-Levenberg algorithm supplied with the Enzfitter program (BIOSOFT, Cambridge, UK). Kinetic parameters with standard errors were estimated using a simple weighting method.
Data adhering to Michaelis-Menten Kinetics were fitted to eq. 1. Data for initial rate patterns with D-, L-GpNA varied at different fixed levels of glygly were fitted to eq. […] Data for competitive and uncompetitive inhibition were fitted to eqs. 3 and 4. Data for the dependence of Vmax and Vmax/KD-GpNA on the concentration of activator were fitted using eq. 5 (25).
In eqs 1-6, Vmax are the initial and maximum rates, respectively, Ka and Kb are Michaelis constants for substrates A and B, respectively, and Kis and Kii are slope and intercept inhibition constants. In eq. 5, a is the value of Vmax or Vmax/KD-GpNA at zero activator/inhibitor, KID is the activation or inhibition constant, and KIN is a constant that causes the parameter to go to a constant value at infinite concentrations of X, the activator/inhibitor. The product a(KID/KIN) is the value of Vmax or Vmax/KD-GpNA at infinite activator/inhibitor (25). Data for noncompetitive inhibition were fitted to eq. 6. Data for the dependence of Vmax and Vmax/KD-GpNA on the concentration of activator were fitted using […].
as §2, with “hGGT” for “Human GGT1”, “described.” for “described (14).”, “reaction with L-GpNA.” for “reaction.”
D-GpNA Hydrolysis Assay: The assay was carried out as previously described. […] The reaction was initiated with the addition of 19 mU GGT as determined by the L-GpNA transpeptidation assay. The reaction was incubated at 37° C. and monitored continuously at 405 nm.

[5] = Cytotoxicity in dividing 786-O cells (MTT assay, 72 hours); format: cell-based, human; settings: human, 786-o cells, dividing 786-O cells, 72 hours; read-out: LD50
Protocol: (§3) Cell Lines: 786-0 cells (ATCC CRL-1932), a human renal adenocarcinoma cell line, were grown in Dulbecco's Modified Eagle's Medium (DMEM) supplemented with 10% fetal bovine serum (FBS) and penicillin/streptomycin (50 units/ml, 50 μg/ml). NIH3T3 cells (ATCC CRL 1658) which are GGT-negative and NIH3T3 cells expressing hGGT [described previously were grown in DMEM/F12 media supplemented with 5% FBS and 0.2 mg/ml G418.
(§4) Cytotoxicity Assays: 786-0 cells were plated at 10^3 cells/well in a 96-well plate in DMEM supplemented with 10% FBS and penicillin/streptomycin (50 units/ml, 50 μg/ml). After 24 hours, the media was changed to fresh media containing OU749 analogs. A 100 mM stock of OU749 and each of its analogs were made in DMSO then diluted in DMEM. Control wells were treated with equivalent concentrations of DMSO. Cell viability was determined 72 hours after the addition of the inhibitors by the MTT assay. For the toxicity of the OU749 and its analogs in 786-0 cells, all determinations were done in triplicate. The LD50 of each compound and the standard deviation (S.D.) were calculated with a Prism log (inhibitor) versus normalized response (variable slope) curve fit (Prism, GraphPad Software Inc., San Diego, Calif.).

[6] = system: 786-0 cells; test: as above; format: cell-based, human; settings: LD50 ratio, 786-O cells
Protocol: as §3, §4

[7] = Table 5, read-out: GlyGly with L-GpNA Kis
[8] = Table 5, read-out: L-GpNA with GlyGly Kii
[9] = GlyGly varied, 3 mM L-GpNA, Table 2, read-out: Transpeptidation GlyGly Kis
[10] = L-GpNA varied, 40 mM GlyGly, Table 2, read-out: Transpeptidation L-GpNA Kii

T2 sequence (P19440 381-569 limits assumed): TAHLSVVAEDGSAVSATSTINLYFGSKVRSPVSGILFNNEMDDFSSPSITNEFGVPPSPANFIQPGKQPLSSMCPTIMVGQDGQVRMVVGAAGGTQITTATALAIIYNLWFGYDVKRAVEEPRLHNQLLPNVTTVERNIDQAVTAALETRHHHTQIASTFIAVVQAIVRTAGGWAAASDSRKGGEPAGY
T2 sequence (P19440 27-380 limits assumed): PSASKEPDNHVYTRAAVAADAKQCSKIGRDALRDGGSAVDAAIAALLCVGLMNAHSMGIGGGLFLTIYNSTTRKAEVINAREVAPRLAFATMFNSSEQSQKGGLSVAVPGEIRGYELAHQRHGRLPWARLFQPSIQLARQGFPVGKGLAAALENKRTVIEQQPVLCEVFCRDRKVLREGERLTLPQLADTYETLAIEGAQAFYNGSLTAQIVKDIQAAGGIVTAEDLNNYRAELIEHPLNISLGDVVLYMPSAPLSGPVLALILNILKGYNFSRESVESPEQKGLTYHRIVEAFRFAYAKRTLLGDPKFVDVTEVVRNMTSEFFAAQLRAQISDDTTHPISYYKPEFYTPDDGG
T3 sequence (P19440 381-569 limits assumed): as the sequence (P19440 381-569 limits assumed) above
T3 sequence (P19440 27-380 limits assumed): as the sequence (P19440 27-380 limits assumed) above
T1 sequence (P19440 381-569 limits assumed): as the sequence (P19440 381-569 limits assumed) above
T1 sequence (P19440 27-380 limits assumed): as the sequence (P19440 27-380 limits assumed) above

Ki ([2]; Table 6): 206 ± 37 µM
fold less potent than Compound 6 in inhibiting catabolism of GSH ([2]; relative to Compound 6): 2.1 fold
Ki ([3]; Table 6, read-out: GlyGly with L-GpNA Kis): 143 ± 20 µM
Ki ([3]; Table 6, read-out: L-GpNA with GlyGly Kii): 364 ± 43 µM
Ki [4]: 415 ± 50 µM
SMILES: COc1ccc(Cc2nnc(NS(=O)(=O)c3ccc4ccccc4c3)s2)cc1 [Compound 30]

Ki ([2]; Table 6): > 250 µM
Ki [3, 9]: 13.4 ± 0.8 µM
Ki [3, 10]: 32.5 ± 0.9 µM
Ki ([4]; read-out: Hydrolysis D-GpNA Kii, D-GpNA substrate, Table 2): 5530 ± 1460 µM
SMILES: COc1ccc(Cc2nnc(NS(=O)(=O)c3ccc(Cl)cc3)s2)cc1 [Compound 10]

Ki ([2]; Table 5): 419 ± 27 µM
Ki [3, 7]: 7 ± 1 µM
Ki [3, 8]: 54 ± 1 µM
Ki [4]: 56 µM
SMILES: Nc1ccc(S(=O)(=O)Nc2nnc(Cc3ccc(Cl)cc3)s2)cc1 [Compound 28]

Ki ([2]; Table 4): > 250 µM
Ki [3, 9]: 143 ± 8.7 µM
Ki [3, 10]: 150 ± 13 µM
Ki [4]: 341 ± 6.4 µM
fold less effective than OU749 in inhibiting hydrolysis of D-GpNA ([4]; relative to OU749): 2-5 fold
SMILES: COc1ccc(Cc2nnc(NS(=O)(=O)c3ccc(C(C)(C)C)cc3)s2)cc1 [Compound 7]

Ki ([2]; Table 5): 355 ± 16 µM
Ki [3, 7]: 47 ± 7 µM
Ki [3, 8]: 58 ± 4 µM
Ki [4]: 24 ± 2 µM
SMILES: Nc1ccc(S(=O)(=O)Nc2nnc(Cc3ccc(F)cc3)s2)cc1 [Compound 26]

Continued, compound first:

SMILES: N[C@H](CCC(=O)Nc1ccc([N+](=O)[O-])cc1)C(=O)O [D-GpNA, D-gamma-glutamyl para-nitroanalide]
V ([1]; minus acceptor): 2.1 ± 0.2 mM/min/nM
V/KGpNA ([1]; minus acceptor): 2.2e+08 ± 1.7e+06 M⁻¹ s⁻¹
second order rate constant ([1]; minus acceptor): 2.17e+08 M⁻¹ s⁻¹
KGlyGly ([1]; plus acceptor GlyGly): 7.0 ± 0.3 mM
V ([1]; plus acceptor GlyGly): 53 ± 11 mM/min/nM
V/KGlyGly ([1]; plus acceptor GlyGly): 1.27e+08 ± 2.5e+07 M⁻¹ s⁻¹
V/KGpNA ([1]; plus acceptor GlyGly): 2.12e+08 ± 4.17e+07 M⁻¹ s⁻¹
fold increase of Vmax in the presence of GlyGly [1]: 25 fold

SMILES: Cc1ccc(Cc2nnc(NS(=O)(=O)c3ccc(N)cc3)s2)cc1 [Compound 22]
Ki ([2]; Table 5): 82 ± 13 µM
Ki [3, 7]: 6 ± 1 µM
Ki [3, 8]: 30 ± 4 µM
Ki [4]: 31 ± 1 µM
CC50 at 72 h [5]: 727 ± 0.02 µM

SMILES: COc1ccc(Cc2nnc(NS(=O)(=O)c3cccc(Cl)c3)s2)cc1 [Compound 3]
Ki ([2]; Table 6): 67 ± 6 µM
fold more potent than OU749 in inhibiting GSH hydrolysis ([2]; relative to OU749): 5.6 fold
Ki [3, 9]: 11.9 ± 1.1 µM
Ki [3, 10]: 22 ± 0.7 µM
Ki [4]: 74.9 ± 2.2 µM
fold less toxic (cytotoxic) than OU749 [6]: 3 fold
CC50 at 72 h [5]: 382 µM

SMILES: N[C@@H](CCC(=O)N[C@@H](CS)C(=O)NCC(=O)O)C(=O)O [GSH, glutathione, reference compound]
Ki ([3]; in the presence of 3 mM L-GpNA, read-out: Kii of GSH vs GlyGly): 3000 ± 500 µM
Ki ([3]; in the presence of 3 mM L-GpNA, read-out: Kis of GSH vs GlyGly): 800 ± 100 µM
Ki ([3]; in the presence of 40 mM GlyGly, read-out: Kii of GSH vs L-GpNA): 1700 ± 20 µM
Ki ([3]; in the presence of 40 mM GlyGly, read-out: Kis of GSH vs L-GpNA): 1400 ± 10 µM
Ki [4]: 10 ± 1.2 µM
Ki ([1]; absence of GlyGly, read-out: Kis of GSH vs L-GpNA): 73 ± 6 µM

SMILES: N[C@@H](CCC(=O)Nc1ccc([N+](=O)[O-])cc1)C(=O)O [L-GpNA, L-gamma-glutamyl para-nitroanilide]
KGpNA relative to D-GpNA ([1]; minus acceptor): 5 times
V ([1]; minus acceptor): 6.5 ± 0.2 mM/min/nM
V/KGpNA ([1]; minus acceptor): 1.3e+08 ± 3.3e+06 M⁻¹ s⁻¹
second order rate constant ([1]; minus acceptor): 1.3e+08 M⁻¹ s⁻¹
KGlyGly ([1]; plus acceptor GlyGly): 9.9 ± 0.9 mM
V ([1]; plus acceptor GlyGly): 141 ± 11 mM/min/nM
V/KGlyGly ([1]; plus acceptor GlyGly): 2.33e+08 ± 1.7e+07 M⁻¹ s⁻¹
V/KGpNA ([1]; plus acceptor GlyGly): 1.95e+09 ± 1.5e+08 M⁻¹ s⁻¹
fold increase of Vmax in the presence of GlyGly [1]: 22 fold
